Converted amounts (≈) assume the structure as drawn. Where two headings read alike, the source gives them in different places.
Assays:
Test in all cases: MIC determination by in vitro antifungal assay
Assay type in all cases: cell-based, Candida auris
[1] = test system: C. auris strain AR Bank #390 (L)
Experimental: (§1) The antifungal agent amphotericin B (AmB) was purchased from VWR (Radnor PA, USA). AmB was dissolved in DMSO at a final concentration of 5 mg/mL and was stored at −20° C., protected from light. Candida albicans American Type Culture Collection (ATCC) 10231 (strain A), C. albicans ATCC 64124 (B), and C. albicans ATCC MYA-2876 (C) were obtained from Utah State University. C. albicans ATCC 90819 (D), C. albicans ATCC MYA-2310 (E), C. albicans ATCC MYA-1237 (F), C. albicans ATCC MYA-1003 (G), Candida glabrata ATCC 2001 (H), Candida krusei ATCC 6258 (I), Candida parapsilosis ATCC 22019 (J), Cryptococcus neoformans ATCC MYA-895 (M), Aspergillus terreus ATCC MYA-3633 (N), and Aspergillus flavus ATCC MYA-3631 (0) were obtained from the American Type Culture Collection (ATCC; Manassas, VA, USA). Aspergillus nidulans ATCC 38163 (P) was obtained from University of Kentucky. Clinically derived Aspergillus fumigatus NRRL 163 (Q), A. fumigatus NRRL 5109 (R), and A. fumigatus NRRL 6113 (S) were obtained from Northern Regional Research Laboratory (NRRL). Candida auris 384 (K), C. auris 390 (L), and fungal strains 381-400 (including 10 C. auris (AR Bank #381-390), 3 Candida duobushaemulonii (AR Bank #391, AR Bank #392, and AR Bank #394), 2 Candida haemulonii (AR Bank #393 and AR Bank #395), 1 Kodameae ohmeri (AR Bank #396), 1 C. krusei (AR Bank #397), 1 Candida lusitaniae (AR Bank #398), and 2 Saccharomyces cerevisiae strains (AR Bank #399 and AR Bank #400)) were part of a larger fungal library from the AR Bank maintained by the Centers for Disease Control and Prevention (CDC; Atlanta, GA, USA). Filamentous fungi and yeasts were cultivated at 35° C. in RPMI 1640 medium (with L-glutamine, without sodium bicarbonate, Sigma-Aldrich, St. Louis, MO) buffered to a pH of 7.0 with 0.165 M morpholinepropanesulfonic acid (MOPS) buffer (Sigma-Aldrich). For cytotoxicity assays, HepG2 and the mouse macrophage cell line J774A.1 were obtained from University of Kentucky. The human embryonic kidney cell line, HEK-293, was bought from the ATCC. Mammalian cells were grown in Dulbecco's Modified Eagle's Medium (DMEM) (from VWR) with 10% fetal bovine serum (FBS) (from VWR) and 1% Pen/Strep (from ATCC). Cell lines were cultured at 37° C. with 5% CO2 and passaged by trypsinization with 0.05% trypsin: 0.53 mM EDTA (from Sigma-Aldrich).
(§2) From the actively growing yeast culture, 100 µL were then transferred to 900 μL of RPMI 1640 medium and re-adjusted to achieve OD600 of 0.12 (˜1×10^6 CFU/mL). The cell suspension was further diluted to achieve 1:100 in RPMI 1640 medium.
Finally, the activity of these monohydrazides was explored against […] non-Candida strains: Cryptococcus neoformans ATCC MYA-895 (M), Aspergillus terreus ATCC MYA-3633 (N), Aspergillus flavus ATCC MYA-3631 (O), Aspergillus nidulans ATCC 38163 (P), Aspergillus fumigatus NRRL 163 (Q), A. fumigatus NRRL 5109 (R), and A. fumigatus NRRL 6113 (S) (Tables 1A and 1B). The double dilution method was used with concentrations ranging from 0.06 to 31.3 j·tg mL^−1 for monohydrazides 1a-9j, and the commercially available positive antifungal control amphotericin B (AmB).

[2] = test system: C. auris AR Bank #388
Experimental: as §1, §2

[3] = test system: C. auris AR Bank #386
Experimental: as §1, §2

[4] = test system: C. auris AR Bank #389
Experimental: as §1, §2

[5] = test system: C. auris AR Bank #387
Experimental: as §1, §2

[6] = test system: C. auris AR Bank #382
Experimental: as §1, §2

[7] = test system: C. auris AR Bank #381
Experimental: as §1, §2

[8] = test system: C. auris AR Bank #383
Experimental: as §1, §2

[9] = test system: C. auris AR Bank #385
Experimental: as §1, §2

[10] = Candidozyma auris, C. auris AR Bank #390 (L), read-out: MIC
[11] = Candidozyma auris, strain L = C. auris AR Bank # 0390 (Tables 1A/1B), read-out: MIC
[12] = Candidozyma auris, C. auris AR Bank #388, read-out: MIC
[13] = Candidozyma auris, C. auris AR Bank #386, read-out: MIC
[14] = Candidozyma auris, C. auris AR Bank #389, read-out: MIC
[15] = Candidozyma auris, C. auris AR Bank #387, read-out: MIC
[16] = Candidozyma auris, C. auris AR Bank #382, read-out: MIC
[17] = Candidozyma auris, C. auris AR Bank #381, read-out: MIC
[18] = Candidozyma auris, C. auris AR Bank #383, read-out: MIC
[19] = Candidozyma auris, C. auris AR Bank #385, read-out: MIC
[20] = strain L = C. auris AR Bank # 0390 (Tables 1A/1B)
[21] = Candidozyma auris, C. auris AR Bank # 390 (L) (Table 2B), read-out: MIC
[22] = Candidozyma auris, C. auris AR Bank # 388 (Table 2B), read-out: MIC
[23] = Candidozyma auris, C. auris AR Bank # 386 (Table 2B), read-out: MIC
[24] = Candidozyma auris, C. auris AR Bank # 389 (Table 2B), read-out: MIC
[25] = Candidozyma auris, C. auris AR Bank # 387 (Table 2B), read-out: MIC
[26] = Candidozyma auris, C. auris AR Bank # 382 (Table 2B), read-out: MIC
[27] = Candidozyma auris, C. auris AR Bank # 381 (Table 2B), read-out: MIC
[28] = Candidozyma auris, C. auris AR Bank # 383 (Table 2B), read-out: MIC
[29] = Candidozyma auris, C. auris AR Bank # 385 (Table 2B), read-out: MIC

O=C(NNc1cc(F)cc(F)c1)c1ccccn1 [Compound 2i]
MIC [1, 10]: 0.49 µg/mL (≈ 1.97 µM)
MIC [1, 11]: 0.49 µg/mL (≈ 1.97 µM)
MIC [2, 12]: 0.24 µg/mL (≈ 0.963 µM)
MIC [3, 13]: ≤ 0.06 µg/mL
MIC [4, 14]: 0.24 µg/mL (≈ 0.963 µM)
MIC [5, 15]: 0.24 µg/mL (≈ 0.963 µM)
MIC [6, 16]: 0.12 µg/mL (≈ 0.482 µM)
MIC [7, 17]: 0.98 µg/mL (≈ 3.93 µM)
MIC [8, 18]: 0.24 µg/mL (≈ 0.963 µM)
MIC [9, 19]: 0.24 µg/mL (≈ 0.963 µM)

O=C(NNc1ccc(Cl)cc1)c1ccccn1 [Compound 2e]
MIC ([1]; C. auris AR Bank #390 (L)): 1.95 μg/mL^−1
MIC [1, 20]: 1.95 μg/mL^−1
MIC ([2]; C. auris AR Bank #388): 1.95 μg/mL^−1
MIC ([3]; C. auris AR Bank #386): 0.98 μg/mL^−1
MIC ([4]; C. auris AR Bank #389): 0.98 μg/mL^−1
MIC ([5]; C. auris AR Bank #387): 1.95 μg/mL^−1
MIC ([6]; C. auris AR Bank #382): 3.9 μg/mL^−1
MIC ([7]; C. auris AR Bank #381): 1.95 μg/mL^−1
MIC ([8]; C. auris AR Bank #383): 1.95 μg/mL^−1
MIC ([9]; C. auris AR Bank #385): 1.95 μg/mL^−1

O=C(NNc1cccc(Cl)c1)c1ccccn1 [Compound 2b]
MIC ([1]; C. auris AR Bank #390 (L)): 0.49 μg/mL^−1
MIC [1, 20]: 0.98 μg/mL^−1
MIC ([2]; C. auris AR Bank #388): 0.49 μg/mL^−1
MIC ([3]; C. auris AR Bank #386): 0.24 μg/mL^−1
MIC ([4]; C. auris AR Bank #389): 0.49 μg/mL^−1
MIC ([5]; C. auris AR Bank #387): 0.49 μg/mL^−1
MIC ([6]; C. auris AR Bank #382): 0.49 μg/mL^−1
MIC ([7]; C. auris AR Bank #381): 0.98 μg/mL^−1
MIC ([8]; C. auris AR Bank #383): 0.49 μg/mL^−1
MIC ([9]; C. auris AR Bank #385): 0.49 μg/mL^−1

COc1cccc(NNC(=O)c2cnccn2)c1 [Compound 9c]
MIC [1, 10]: 0.98 µg/mL (≈ 4.01 µM)
MIC [1, 11]: 0.98 µg/mL (≈ 4.01 µM)
MIC [2, 12]: 3.9 µg/mL (≈ 16 µM)
MIC [3, 13]: 0.49 µg/mL (≈ 2.01 µM)
MIC [4, 14]: 0.98 µg/mL (≈ 4.01 µM)
MIC [5, 15]: 0.98 µg/mL (≈ 4.01 µM)
MIC [6, 16]: 0.98 µg/mL (≈ 4.01 µM)
MIC [7, 17]: 1.95 µg/mL (≈ 7.98 µM)
MIC [8, 18]: 1.95 µg/mL (≈ 7.98 µM)
MIC [9, 19]: 7.8 µg/mL (≈ 31.9 µM)

O=C(NNc1ccc(F)cc1F)c1cccc(F)n1 [Compound 5g]
MIC [1, 21]: 3.9 µg/mL (≈ 14.6 µM)
MIC [1, 11]: 3.9 µg/mL (≈ 14.6 µM)
MIC [2, 22]: 3.9 µg/mL (≈ 14.6 µM)
MIC [3, 23]: 1.95 µg/mL (≈ 7.3 µM)
MIC [4, 24]: 3.9 µg/mL (≈ 14.6 µM)
MIC [5, 25]: 1.95 µg/mL (≈ 7.3 µM)
MIC [6, 26]: 0.98 µg/mL (≈ 3.67 µM)
MIC [7, 27]: 3.9 µg/mL (≈ 14.6 µM)
MIC [8, 28]: 1.95 µg/mL (≈ 7.3 µM)
MIC [9, 29]: 3.9 µg/mL (≈ 14.6 µM)

O=C(NNc1ccc(Cl)cc1)c1nc(F)ccc1F [Compound 8e]
MIC ([1]; C. auris AR Bank # 390 (L) (Table 2B)): 7.8 μg/mL^−1
MIC [1, 20]: 7.8 μg/mL^−1
MIC ([2]; C. auris AR Bank # 388 (Table 2B)): 15.6 μg/mL^−1
MIC ([3]; C. auris AR Bank # 386 (Table 2B)): 15.6 μg/mL^−1
MIC ([4]; C. auris AR Bank # 389 (Table 2B)): 7.8 μg/mL^−1
MIC ([5]; C. auris AR Bank # 387 (Table 2B)): 7.8 μg/mL^−1
MIC ([6]; C. auris AR Bank # 382 (Table 2B)): 7.8 μg/mL^−1
MIC ([7]; C. auris AR Bank # 381 (Table 2B)): 7.8 μg/mL^−1
MIC ([8]; C. auris AR Bank # 383 (Table 2B)): 7.8 μg/mL^−1
MIC ([9]; C. auris AR Bank # 385 (Table 2B)): 3.9 μg/mL^−1

O=C(NNc1cc(Cl)cc(Cl)c1)c1ccc(F)cc1F [Compound 1j]
MIC [1, 21]: > 31.3 µg/mL
MIC [1, 11]: > 31.3 µg/mL
MIC [2, 22]: > 31.3 µg/mL
MIC [3, 23]: > 31.3 µg/mL
MIC [4, 24]: > 31.3 µg/mL
MIC [5, 25]: > 31.3 µg/mL
MIC [6, 26]: 15.6 µg/mL (≈ 49.2 µM)
MIC [7, 27]: > 31.3 µg/mL
MIC [8, 28]: > 31.3 µg/mL
MIC [9, 29]: 31.3 µg/mL (≈ 98.7 µM)

O=C(NNc1ccc(F)cc1)c1ccc(Br)cn1 [Compound 4d]
MIC [1, 21]: 7.8 µg/mL (≈ 25.2 µM)
MIC [1, 11]: 3.9 µg/mL (≈ 12.6 µM)
MIC [2, 22]: 1.95 µg/mL (≈ 6.29 µM)
MIC [3, 23]: 3.9 µg/mL (≈ 12.6 µM)
MIC [4, 24]: 3.9 µg/mL (≈ 12.6 µM)
MIC [5, 25]: 3.9 µg/mL (≈ 12.6 µM)
MIC [6, 26]: 1.95 µg/mL (≈ 6.29 µM)
MIC [7, 27]: 1.95 µg/mL (≈ 6.29 µM)
MIC [8, 28]: 7.8 µg/mL (≈ 25.2 µM)
MIC [9, 29]: 1.95 µg/mL (≈ 6.29 µM)

— patent US20240425464A1, “Substituted Monohydrazides as Potent Antifungal Agents” (University of Kentucky Research Foundation, priority 2023, published 2024)
